Results: patent publication US5571518A, “Cosmetic compositions containing tricholine citrate” (priority 1995, dated 1996)

How the values were obtained:
human keratinocytes [1] = assay: Cornified envelope (CE) formation, marker of terminal differentiation of keratinocytes; format: cell-based; conditions: Homo sapiens, Keratinocyte, read-out: CE Levels
Method: (§1) Human keratinocytes, isolated from neonatal foreskin by trypsin treatment were grown in Dulbecco Modification Eagle (DME) Hams F12 (3:1) medium/5% fetal calf serum in the presence of mitomycin C treated 3T3 mouse fibroblasts for establishing dividing keratinocyte colonies. Cells were grown under the above condition until their second passage and kept frozen for future use. Frozen second passage keratinocytes were thawed and plated into the above medium and grown for five days. On day 5, when the cells were 70-80% confluent, they were trypsinized and plated in the serum-free medium for the various experiments.
(§2) During the process of terminal differentiation in the epidermis, a 15 nm thick layer of protein, known as the cornified envelope (CE)is formed on the inner surface of the cell periphery. The CE is composed of numerous distinct proteins which have been cross-linked together by the formation of N ^ε -(-γ-glutamyl) lysine isodipeptide bonds catalyzed by the action of at least two different transglutaminases expressed in the epidermis. Transglutaminase (TG-1) is expressed in abundance in the differentiated layers of the epidermis, especially the granular layer, but is absent in the undifferentiated basal epidermis. Thus, TG-1 is a useful marker of epidermal keratinocyte differentiation with high TG-1 levels indicating a more differentiated state. An ELISA based TG-1 assay, using a TG-1 antibody, was used to assess the state of differentiation of the cultured keratinocytes in the examples that follow.
Proper skin conditioning require enhanced proliferation and differentiation of epidermal keratinocytes. The different citrate esters were tested on their effect on cornified envelope (CE) formation, a marker of terminal differentiation of keratinocytes. Citrate esters were tested at 1 mM levels in medium containing 0.15 mM Ca. Levels are expressed as % of control ±SD. The CE formation for the control was 54.48 ±31.8 cpm/μg cell protein.

Transglutaminase (TG-1) = assay: Transglutaminase I levels in keratinocytes (ELISA based TG-1 assay); format: cell-based, human; conditions: 48 hour treatment
Method: as §1, §2
The level of TG-1 was measured as follows. […] The DNA content of the cells in the wells were first determined before the TG-1 assay.
TG-1 levels of the cells in the wells were determined using the TG-1 specific monoclonal antibody (BC1) (first antibody) (obtained from Amersham Life Sciences) and using a peroxidase labelled rabbit antimouse IgG fragment (second antibody). The plates were blocked by 5% nonfat milk in TBS (Tris buffered saline, pH 8.0) for one hour followed by overnight incubation with the first antibody (1:2,000 fold dilution) in 1% milk/TBS at 4° C. After rinsing the plates three times with 1% milk/TBS containing 0.05% Tween 20, the plates were incubated with 1:4000 dilution of the second antibody at room temperature for two hours. The plates were rinsed three times with 1% milk/TBS/Tween and three times with TBS. Color was developed by incubation with o-phenylene diamine and hydrogen peroxide. The optical density was read at 410 nm in a microtiter plate reader and the TG-1 levels were calculated as OD/DNA fluorescence. The mean ±Standard Deviation of at least six separate wells were used for calculation and statistical analysis of the data. Results are expressed as % of control.
Cornified envelope formation is determined by the activity of transglutaminase enzyme which cross-links all the envelope precursor proteins to form the envelope. This enzyme is calcium dependent and is inhibited by calcium chelators such as citric acid and citric acid esters.

human keratinocytes [2] = assay: 3H choline incorporation into phospholipids of keratinocytes; format: cell-based; conditions: Homo sapiens, Keratinocyte, 48 hours, * statistically significant effects, read-out: 3H choline incorporated into cellular phospholipids
Method: as §1
Choline acts as an essential nutrient for the cellular phospholipid biosynthesis of keratinocytes. Choline present in the medium is used up by the cells for phospholipid biosynthesis. If TCC provides choline for the cells it will complete with the choline in the medium for incorporation into cellular phospholipids. When cells are incubated with ^3 H-labelled choline, its incorporation into phospholipids will be decreased by the presence of unlabelled choline or TCC in the medium.
[…] The wells were washed, total lipids were extracted using Bleigh Dyer method as described above and the total counts in the chloroform phase was determined. To ascertain that the counts are present only in the phospholipid fraction, the amount of ^3 H choline incorporated into the different lipid fractions were quantitated by running TLC of the fractions in the above solvent system, and the amount of radioactivity in the phospholipid fraction (origin) was quantitated using BioScan plate reader. The cpm of ^3 H choline was plotted against the amount of cold choline or TCC added in the medium to assess the competition between choline supplied from TCC with ^3 H choline.
The amount of ^3 H choline incorporated into cellular phospholipids was determined and expressed as % of controls.

[3] = 10 μM, * statistically significant
[4] = 100 μM, * statistically significant
[5] = 1 mM, medium containing 0.15 mM Ca, ±SD, * statistically significant effects

C[N+](C)(C)CCO [Choline, choline]
activity at 1000 µM (human keratinocytes [1]): 135 ± 23.6%
transglutaminase I levels (Transglutaminase (TG-1); 1 μM): 121.8 ± 18 % of control
transglutaminase I levels (Transglutaminase (TG-1); [3]): 124.2 ± 8.7 % of control
transglutaminase I levels (Transglutaminase (TG-1); [4]): 120.4 ± 11.3 % of control
activity at 10 µM (human keratinocytes [2]): 61.6 ± 7.8%
activity at 100 µM (human keratinocytes [2]): 36.9 ± 1.6%
activity at 1000 µM (human keratinocytes [2]): 10.8 ± 5.5%

CCOC(=O)CC(O)(CC(=O)OCC)C(=O)OCC [TEC, triethylcitrate]
activity at 1000 µM (human keratinocytes [1]; [5]): 18.6 ± 4.2%
transglutaminase I levels (Transglutaminase (TG-1); 1 μM): 77.3 ± 10.7 % of control
transglutaminase I levels (Transglutaminase (TG-1); [3]): 76.7 ± 20.8 % of control
transglutaminase I levels (Transglutaminase (TG-1); [4]): 67.2 ± 11.9 % of control
activity at 10 µM (human keratinocytes [2]): 114 ± 9.9%
activity at 100 µM (human keratinocytes [2]): 89.2 ± 1.9%
activity at 1000 µM (human keratinocytes [2]): 82.8 ± 22%

CCCCOC(=O)CC(O)(CC(=O)OCCCC)C(=O)OCCCC [TBC, tributylcitrate]
activity at 1000 µM (human keratinocytes [1]; [5]): 23.6 ± 2.1%
transglutaminase I levels (Transglutaminase (TG-1); 1 μM): 100 ± 13 % of control
transglutaminase I levels (Transglutaminase (TG-1); [3]): 79 ± 13 % of control
transglutaminase I levels (Transglutaminase (TG-1); [4]): 79 ± 13 % of control
activity at 10 µM (human keratinocytes [2]): 81.1 ± 7%
activity at 100 µM (human keratinocytes [2]): 121 ± 6.7%
activity at 1000 µM (human keratinocytes [2]): 81.1 ± 12%
